In patent US8828401B2, “Cytotoxic peptides and antibody drug conjugates thereof” (Pfizer Inc., priority 2011, dated 2014):
pIC50: −log10 of the molar value. Non-standard residues stand in square brackets, D forms with d. Residues, ends and D or L forms follow the SMILES beside them. *: point of attachment. Dolaproine = CO[C@@H]([C@@H]1CCCN1)[C@@H](C)C(=O)O; Dil = CC[C@H](C)[C@H](NC)[C@@H](CC(=O)O)OC; X10 = C[C@@H](N*)[C@@H](O)c1ccccc1; αMeP = C[C@@]1(C(=O)O)CCCN1; dIva = CC[C@@](C)(N)C(=O)O; X1 = CN1CCC[C@]1(C)C(=O)*; NMeAib = CNC(C)(C)C(=O)O; X8 = C1=CC=CC(CCN*)C=C1; Aib = CC(C)(N)C(=O)O

Tests used:
[1] = system: MDA-MB-361-DYT2 (breast cancer); assay: In vitro cell assay, MTS cell viability 96 hours after treatment; assay type: cell-based; conditions: read-out: MDA-MB-361-DYT2 GMEAN IC50, MDA-MB-361-DYT2 cells; geometric mean; cytotoxic peptides
Protocol: (§1) Cells were treated with 3-fold serially diluted antibody-drug conjugates or free compounds (i.e., no antibody conjugated to the drug) in duplicate at 10 concentrations. Cell viability was determined by CellTiter 96® AQueous One Solution Cell Proliferation MTS Assay (Promega, Madison Wis.) 96 hours after treatment. Relative cell viability was determined as percentage of untreated control.

[2] = system: N87 (gastric cancer); assay: as above; assay type: cell-based; conditions: read-out: N87 GMEAN IC50, N87 cells; geometric mean; cytotoxic peptides
Protocol: as §1

| Structure (SMILES) | pIC50 [1] | pIC50 [2] |
| --- | --- | --- |
| CC[C@H](C)[C@@H]([C@@H](CC(=O)N1CCC[C@H]1[C@H](OC)[C@@H](C)C(=S)N[C@@H](Cc1ccccc1)c1nccs1)OC)N(C)C(=O)[C@@H](NC(=O)[C@@H](NC)C(C)C)C(C)C [#26, N-methyl-L-valyl-N-[(3R,4S,5S)-3-methoxy-1-{(2S)-2-[(1R,2R)-1-methoxy-2-methyl-3-{[(1S)-2-phenyl-1-(1,3-thiazol-2-yl)ethyl]amino}-3-thioxopropyl]pyrrolidin-1-yl}-5-methyl-1-oxoheptan-4-yl]-N-methyl-L-valinamide] | 8.98 | 9.27 |
| CC[C@H](C)[C@@H]([C@@H](CC(=O)N1CCC[C@H]1[C@H](OC)[C@@H](C)C(=S)NCCc1ccccc1)OC)N(C)C(=O)[C@@H](NC(=O)[C@@H](NC)C(C)C)C(C)C [#36, N-methyl-L-valyl-N-{(3R,4S,5S)-3-methoxy-1-[(2S)-2-{(1R,2R)-1-methoxy-2-methyl-3-[(2-phenylethyl)amino]-3-thioxopropyl}pyrrolidin-1-yl]-5-methyl-1-oxoheptan-4-yl}-N-methyl-L-valinamide] | 8.95 | 8.92 |
| CC[C@H](C)[C@@H]([C@@H](CC(=O)N1CCC[C@H]1[C@H](OC)[C@@H](C)C(=S)N[C@@H](Cc1ccccc1)C(=O)OC)OC)N(C)C(=O)[C@@H](NC(=O)C(C)(C)N)C(C)C [#45, 2-methylalanyl-N-[(3R,4S,5S)-3-methoxy-1-{(2S)-2-[(1R,2R)-1-methoxy-3-{[(2S)-1-methoxy-1-oxo-3-phenylpropan-2-yl]amino}-2-methyl-3-thioxopropyl]pyrrolidin-1-yl}-5-methyl-1-oxoheptan-4-yl]-N-methyl-L-valinamide] | 9.38 | 9.41 |
| CC[C@H](C)[C@@H]([C@@H](CC(=O)N1CCC[C@H]1[C@H](OC)[C@@H](C)C(=O)NCCC1C=CC=CC=C1)OC)N(C)C(=O)[C@@H](NC(=O)C(C)(C)N)C(C)C [#66, 2-Methylalanyl-N-[(3R,4S,5S)-1-{(2S)-2-[(1R,2R)-3-{[2-(cyclohepta-2,4,6-trien-1-yl)ethyl]amino}-1-methoxy-2-methyl-3-oxopropyl]pyrrolidin-1-yl}-3-methoxy-5-methyl-1-oxoheptan-4-yl]-N-methyl-L-valinamide] (H-[Aib]V[Dil][Dolaproine]-X8) | 9.48 |  |
| CC[C@H](C)[C@@H]([C@@H](CC(=O)N1CCC[C@H]1[C@H](OC)[C@@H](C)C(=O)N[C@@H](Cc1ccccc1)C(=O)OC)OC)N(C)C(=O)[C@@H](NC(=O)C(C)(C)N)C(C)C [#70, 2-methylalanyl-N-[(3R,4S,5S)-3-methoxy-1-{(2S)-2-[(1R,2R)-1-methoxy-3-{[(2S)-1-methoxy-1-oxo-3-phenylpropan-2-yl]amino}-2-methyl-3-oxopropyl]pyrrolidin-1-yl}-5-methyl-1-oxoheptan-4-yl]-N-methyl-L-valinamide] (H-[Aib]V[Dil][Dolaproine]F-OMe) | 9.65 | 9.49 |
| CC[C@H](C)[C@@H]([C@@H](CC(=O)N1CCC[C@H]1[C@H](OC)[C@@H](C)C(=O)N[C@@H](Cc1ccccc1)C(=O)OC)OC)N(C)C(=O)[C@@H](NC(=O)C(C)(C)CN)C(C)C [#126, methyl N-[(2R,3R)-3-{(2S)-1-[(3R,4S,5S)-4-{[N-(3-amino-2,2-dimethylpropanoyl)-L-valyl](methyl)amino}-3-methoxy-5-methylheptanoyl]pyrrolidin-2-yl}-3-methoxy-2-methylpropanoyl]-L-phenylalaninate] | 9.34 | 9.43 |
| CC[C@H](C)[C@@H]([C@@H](CC(=O)N1CCC[C@H]1[C@H](OC)[C@@H](C)C(=O)N[C@H](C)[C@@H](O)c1ccccc1)OC)N(C)C(=O)[C@@H](NC(=O)[C@]1(C)CCCN1)C(C)C [#134, 2-methyl-L-prolyl-N-[(3R,4S,5S)-1-{(2S)-2-[(1R,2R)-3-{[(1S,2R)-1-hydroxy-1-phenylpropan-2-yl]amino}-1-methoxy-2-methyl-3-oxopropyl]pyrrolidin-1-yl}-3-methoxy-5-methyl-1-oxoheptan-4-yl]-N-methyl-L-valinamide] (H-[αMeP]V[Dil][Dolaproine]-X10) | 9.87 | 9.94 |
| CC[C@H](C)[C@@H]([C@@H](CC(=O)N1CCC[C@H]1[C@H](OC)[C@@H](C)C(=O)N[C@H](C)[C@@H](O)c1ccccc1)OC)N(C)C(=O)[C@@H](NC(=O)C(C)(C)NC)C(C)C [#145, N,2-dimethylalanyl-N-{(1S,2R)-4-{(2S)-2-[(1R,2R)-3-{[(1R,2S)-2-hydroxy-1-methyl-2-phenylethyl]amino}-1-methoxy-2-methyl-3-oxopropyl]pyrrolidin-1-yl}-2-methoxy-1-[(1S)-1-methylpropyl]-4-oxobutyl}-N-methyl-L-valinamide] (H-[NMeAib]V[Dil][Dolaproine]-X10) | 9.64 | 9.78 |
| CC[C@H](C)[C@@H]([C@@H](CC(=O)N1CCC[C@H]1[C@H](OC)[C@@H](C)C(=O)N[C@@H](Cc1ccccc1)C(=O)OC)OC)N(C)C(=O)[C@@H](NC(=O)[C@](C)(N)CC)C(C)C [#149, D-isovalyl-N-{(1S,2R)-4-{(2S)-2-[(1R,2R)-3-{[(1S)-1-benzyl-2-methoxy-2-oxoethyl]amino}-1-methoxy-2-methyl-3-oxopropyl]pyrrolidin-1-yl}-2-methoxy-1-[(1S)-1-methylpropyl]-4-oxobutyl}-N-methyl-L-valinamide] (H-[dIva]V[Dil][Dolaproine]F-OMe) | 9.37 |  |
| CC[C@H](C)[C@@H]([C@@H](CC(=O)N1CCC[C@H]1[C@H](OC)[C@@H](C)C(=O)N[C@@H](Cc1ccccc1)C(=O)O)OC)N(C)C(=O)[C@@H](NC(=O)[C@@]1(C)CCCN1C)C(C)C [#153, 1,2-dimethyl-D-prolyl-N-{(1S,2R)-4-{(2S)-2-[(1R,2R)-3-{[(1S)-1-carboxy-2-phenylethyl]amino}-1-methoxy-2-methyl-3-oxopropyl]pyrrolidin-1-yl}-2-methoxy-1-[(1S)-1-methylpropyl]-4-oxobutyl}-N-methyl-L-valinamide] (X1-V[Dil][Dolaproine]F-OH) | 7.04 | 7.33 |
| CC[C@H](C)[C@@H]([C@@H](CC(=O)N1CCC[C@H]1[C@H](OC)[C@@H](C)C(=O)N[C@@H](Cc1ccccc1)c1nccs1)OC)N(C)C(=O)[C@@H](NC(=O)[C@]1(C)CCCCN1)C(C)C [#188, (2S)—N-[(2S)-1-{[(3R,4S,5S)-3-methoxy-1-{(2S)-2-[(1R,2R)-1-methoxy-2-methyl-3-oxo-3-{[(1S)-2-phenyl-1-(1,3-thiazol-2-yl)ethyl]amino}propyl]pyrrolidin-1-yl}-5-methyl-1-oxoheptan-4-yl](methyl)amino}-3-methyl-1-oxobutan-2-yl]-2-methylpiperidine-2-carboxamide] | 9.39 |  |
| CC[C@H](C)[C@@H]([C@@H](CC(=O)N1CCC[C@H]1[C@H](OC)[C@@H](C)C(=O)N[C@@H](Cc1ccc2c(c1)CCCN2)C(=O)OC)OC)N(C)C(=O)[C@@H](NC(=O)[C@]1(C)CCCN1C)C(C)C [#207, 1,2-dimethyl-L-prolyl-N-[(3R,4S,5S)-3-methoxy-1-{(2S)-2-[(1R,2R)-1-methoxy-3-{[(2S)-1-methoxy-1-oxo-3-(1,2,3,4-tetrahydroquinolin-6-yl)propan-2-yl]amino}-2-methyl-3-oxopropyl]pyrrolidin-1-yl}-5-methyl-1-oxoheptan-4-yl]-N-methyl-L-valinamide] |  | 9.20 |
